What was measured:
velvetleaf [1] = assay: Test A pre-/postemergence herbicide test; format: in vivo, Abutilon theophrasti
Summary of the method: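 Visual injury scores on a 0–100 scale (100 = complete control) taken about ten days post-treatment in greenhouse against untreated controls; dash means no result. Treatments: preemergence soil spray and postemergence spray to runoff on one- to two-leaf plants 2 to 10 cm tall, surfactant-containing formulation.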

corn [2] = assay: Test B pre-/postemergence herbicide test; format: in vivo, Zea mays
Summary of the method: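 Flooded paddy rice and barnyardgrass were treated at the 2-leaf stage; upland plantings received compound either on sown seed or on 1- to 4-leaf seedlings. All were kept 13–15 days in a greenhouse and scored visually, 0–100, relative to untreated plants.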

ducksalad = assay: Test B flooded paddy test; format: in vivo, Heteranthera limosa; conditions: 1000 g ai/ha, visual rating, scale 0 to 100 (0 no effect, 100 complete control), 13 to 15 days
Summary of the method: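 Visual control ratings, 0–100 versus untreated controls, taken after 13 to 15 days in the greenhouse. Blackgrass received a postemergence spray at the 1- to 4-leaf stage (2–18 cm); ducksalad, umbrella sedge and barnyardgrass were flooded-paddy treated at 2 leaves.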

cocklebur = assay: Test C pre-/postemergence herbicide test; format: in vivo, Xanthium strumarium; conditions: for Cocklebur plant response rating: 500 g ai/ha
Summary of the method: (§1)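 Visual ratings on a 0–100 scale (100 = complete control) made versus untreated controls after 12 to 14 greenhouse days. Test chemicals, formulated in surfactant-containing non-phytotoxic solvent, applied preemergence to planted seeds or postemergence to 1- to 4-leaf plants (2 to 18 cm).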

corn [3] = assay: Test C pre-/postemergence herbicide test; format: in vivo, Zea mays; conditions: for Corn plant response rating: 500 g ai/ha
Summary of the method: as §1

giant foxtail = assay: Test C pre-/postemergence herbicide test; format: in vivo, Setaria faberi; conditions: for Foxtail, Giant plant response rating: 500 g ai/ha
Summary of the method: as §1

kochia = assay: Test C pre-/postemergence herbicide test; format: in vivo, Kochia scoparia; conditions: for Kochia plant response rating: 500 g ai/ha
Summary of the method: as §1

velvetleaf [4] = assay: Test C pre-/postemergence herbicide test; format: in vivo, Abutilon theophrasti; conditions: for Velvetleaf plant response rating: 500 g ai/ha
Summary of the method: as §1

[5] = Preemergence, 500 g ai/ha, scale 0 to 100
[6] = 125 g ai/ha, scale 0-100, preemergence
[7] = 250 g ai/ha, scale 0 to 100 (0 no effect, 100 complete control), visual, 12 to 14 days, preemergence
[8] = Postemergence, 125 g ai/ha, scale 0 to 100, 0 no effect, 100 complete control
[9] = Postemergence, 250 g ai/ha, scale 0 to 100, 0 no effect, 100 complete control
[10] = postemergence, 62 g ai/ha, scale 0 to 100
[11] = Preemergence, scale 0 to 100, 0 no effect, 100 complete control
[12] = postemergence, 125 g ai/ha, scale 0 to 100

CCNC(=O)c1cccc(NC(=O)c2cc(C(C)(C)C)nn2CC(F)(F)F)c1 [Compound 31]
10: Velvetleaf plant response rating (velvetleaf [1]; preemergence, 250 g ai/ha, visual injury, 0 to 100 scale (0 no effect, 100 complete control))
80: Ducksalad plant response rating (ducksalad) | Plant response rating, Kochia (kochia; [6])
50: Corn plant response rating (corn [3]; Postemergence, scale 0 to 100) | Plant response rating, Velvetleaf (velvetleaf [4]; [10])
35: Velvetleaf plant response rating (velvetleaf [1]; Preemergence, 1000 g ai/ha, visual rating, 0 to 100 scale (0 no effect, 100 complete control))
40: Plant response rating, Cocklebur (cocklebur; [7]) | Plant response rating, Cocklebur (cocklebur; [8]) | Plant response rating, Cocklebur (cocklebur; [9]) | Plant response rating, Cocklebur (cocklebur; [10]) | Plant response rating, Corn (corn [3]; [8]) | Plant response rating, Corn (corn [3]; [9]) | Plant response rating, Corn (corn [3]; [10]) | Foxtail, Giant plant response rating (giant foxtail; Postemergence, scale 0 to 100)
20: Velvetleaf plant response rating (velvetleaf [1]; Postemergence, 250 g ai/ha, 0 to 100 scale, 0 no effect, 100 complete control) | Corn plant response rating (corn [2]; [5]) | Plant response rating, Cocklebur (cocklebur; [6]) | Plant response rating, Corn (corn [3]; [6]) | Plant response rating (0 = no effect, 100 = complete control), Foxtail, Giant (giant foxtail; 62 g ai/ha, preemergence) | Plant response rating, Foxtail, Giant (giant foxtail; [10]) | Plant response rating (0 = no effect, 100 = complete control), Velvetleaf (velvetleaf [4]; 62 g ai/ha, preemergence)
60: Cocklebur plant response rating (cocklebur; Postemergence, scale 0 to 100) | Plant response rating, Velvetleaf (velvetleaf [4]; [12])
100: Foxtail, Giant plant response rating (giant foxtail; [11]) | Plant response rating, Kochia (kochia; [7]) | Kochia plant response rating (kochia; [11]) | Plant response rating, Velvetleaf (velvetleaf [4]; [7]) | Velvetleaf plant response rating (velvetleaf [4]; [11])
30: Plant response rating, Velvetleaf (velvetleaf [1]; Postemergence, 1000 g ai/ha, 0 to 100 scale, 0 no effect, 100 complete control) | Corn plant response rating (corn [2]; Postemergence, 125 g ai/ha, scale 0 (no effect) to 100 (complete control)) | Plant response rating, Corn (corn [2]; Postemergence, 500 g ai/ha, visual rating after 13 to 15 days, scale 0 (no effect) to 100 (complete control)) | Plant response rating, Foxtail, Giant (giant foxtail; [6]) | Plant response rating, Foxtail, Giant (giant foxtail; [8]) | Plant response rating, Foxtail, Giant (giant foxtail; [9])
0: Plant response rating (0 = no effect, 100 = complete control), Cocklebur (cocklebur; 62 g ai/ha, preemergence) | Plant response rating (0 = no effect, 100 = complete control), Corn (corn [3]; 62 g ai/ha, preemergence) | Plant response rating (0 = no effect, 100 = complete control), Kochia (kochia; 62 g ai/ha, preemergence)
70: Plant response rating, Foxtail, Giant (giant foxtail; [7]) | Kochia plant response rating (kochia; Postemergence, scale 0 to 100) | Plant response rating, Kochia (kochia; [8]) | Plant response rating, Kochia (kochia; [9]) | Plant response rating, Kochia (kochia; [10]) | Velvetleaf plant response rating (velvetleaf [4]; Postemergence, scale 0 to 100) | Plant response rating, Velvetleaf (velvetleaf [4]; [9])

C=Cn1nc(C(C)(C)C)cc1C(=O)Nc1cccc(C(=O)N(CC)CC)c1 [Compound 34]
20: Plant response rating, Velvetleaf (velvetleaf [1]; Postemergence, 500 g ai/ha, 0 to 100 scale, 0 no effect, 100 complete control) | Velvetleaf plant response rating (velvetleaf [1]; Preemergence, 500 g ai/ha, visual rating, 0 to 100 scale (0 no effect, 100 complete control)) | Plant response rating, Cocklebur (cocklebur; [8]) | Plant response rating, Cocklebur (cocklebur; [10]) | Plant response rating, Corn (corn [3]; [10]) | Plant response rating, Foxtail, Giant (giant foxtail; [10]) | Plant response rating, Velvetleaf (velvetleaf [4]; [10])
25: Velvetleaf plant response rating (velvetleaf [1]; Preemergence, 2000 g ai/ha, 0 to 100 scale, 0 no effect, 100 complete control)
30: Plant response rating, Velvetleaf (velvetleaf [1]; Postemergence, 2000 g ai/ha, 0 to 100 scale, 0 no effect, 100 complete control) | Plant response rating, Corn (corn [3]; [8])
100: Foxtail, Giant plant response rating (giant foxtail; [11]) | Kochia plant response rating (kochia; [11]) | Velvetleaf plant response rating (velvetleaf [4]; [11])
50: Plant response rating, Cocklebur (cocklebur; [9]) | Plant response rating, Corn (corn [3]; [9])
0: Corn plant response rating (corn [2]; [5]) | Plant response rating (0 = no effect, 100 = complete control), Cocklebur (cocklebur; 62 g ai/ha, preemergence) | Plant response rating, Cocklebur (cocklebur; [6]) | Plant response rating, Cocklebur (cocklebur; [7]) | Cocklebur plant response rating (cocklebur; [11]) | Plant response rating (0 = no effect, 100 = complete control), Corn (corn [3]; 62 g ai/ha, preemergence) | Plant response rating, Corn (corn [3]; [6]) | Plant response rating, Corn (corn [3]; [7]) | Corn plant response rating (corn [3]; [11]) | Plant response rating (0 = no effect, 100 = complete control), Velvetleaf (velvetleaf [4]; 62 g ai/ha, preemergence)
70: Cocklebur plant response rating (cocklebur; Postemergence, scale 0 to 100) | Corn plant response rating (corn [3]; Postemergence, scale 0 to 100) | Plant response rating, Foxtail, Giant (giant foxtail; [6]) | Velvetleaf plant response rating (velvetleaf [4]; Postemergence, scale 0 to 100) | Plant response rating, Velvetleaf (velvetleaf [4]; [9]) | Plant response rating, Velvetleaf (velvetleaf [4]; [12])
40: Foxtail, Giant plant response rating (giant foxtail; Postemergence, scale 0 to 100) | Plant response rating, Foxtail, Giant (giant foxtail; [8]) | Plant response rating, Foxtail, Giant (giant foxtail; [9])
10: Plant response rating (0 = no effect, 100 = complete control), Foxtail, Giant (giant foxtail; 62 g ai/ha, preemergence)
90: Plant response rating, Foxtail, Giant (giant foxtail; [7]) | Plant response rating (0 = no effect, 100 = complete control), Kochia (kochia; 62 g ai/ha, preemergence) | Plant response rating, Kochia (kochia; [6]) | Kochia plant response rating (kochia; Postemergence, scale 0 to 100) | Plant response rating, Kochia (kochia; [8]) | Plant response rating, Kochia (kochia; [9]) | Plant response rating, Velvetleaf (velvetleaf [4]; [7])
80: Ducksalad plant response rating (ducksalad) | Plant response rating, Kochia (kochia; [10])
